The values below are quoted from earlier work in patent publication US20080318335A1, “Transgenic Plant for Detecting Environmental Chemicals” (priority 2005, published 2008).

The test system of the data set is GUS gene. The conditions noted are these: tobacco including AhR vector; 5 nM 20-methylcholanthrene.

As to 20-methylcholanthrene, the GUS gene expression result is “expressed”.
